pIC50: −log10 of the molar value.
How the values were obtained:
[1] = Inhibition of PI3Kbeta in human washed platelets assessed as suppression of ADP-induced platelet aggregation preincubated for 5 mins followed by ADP stimulation after 10 mins by light transmission aggregometric analysis
[2] = Inhibition of PI3Kbeta in human platelet-rich plasma assessed as suppression of ADP-induced platelet aggregation preincubated for 5 mins followed by ADP stimulation after 10 mins by light transmission aggregometric analysis
[3] = target: Phosphatidylinositol 4,5-bisphosphate 3-kinase catalytic subunit beta isoform (Homo sapiens, UniProt P42338); assay: Inhibition of PI3Kbeta in human washed platelets assessed as suppression of ADP-induced platelet aggregation preincubated for 5 mins followed by ADP stimulation after 10 mins by light transmission aggregometric analysis
Phosphatidylinositol 4,5-bisphosphate 3-kinase catalytic subunit beta isoform, sequence (P42338 whole entry, canonical isoform): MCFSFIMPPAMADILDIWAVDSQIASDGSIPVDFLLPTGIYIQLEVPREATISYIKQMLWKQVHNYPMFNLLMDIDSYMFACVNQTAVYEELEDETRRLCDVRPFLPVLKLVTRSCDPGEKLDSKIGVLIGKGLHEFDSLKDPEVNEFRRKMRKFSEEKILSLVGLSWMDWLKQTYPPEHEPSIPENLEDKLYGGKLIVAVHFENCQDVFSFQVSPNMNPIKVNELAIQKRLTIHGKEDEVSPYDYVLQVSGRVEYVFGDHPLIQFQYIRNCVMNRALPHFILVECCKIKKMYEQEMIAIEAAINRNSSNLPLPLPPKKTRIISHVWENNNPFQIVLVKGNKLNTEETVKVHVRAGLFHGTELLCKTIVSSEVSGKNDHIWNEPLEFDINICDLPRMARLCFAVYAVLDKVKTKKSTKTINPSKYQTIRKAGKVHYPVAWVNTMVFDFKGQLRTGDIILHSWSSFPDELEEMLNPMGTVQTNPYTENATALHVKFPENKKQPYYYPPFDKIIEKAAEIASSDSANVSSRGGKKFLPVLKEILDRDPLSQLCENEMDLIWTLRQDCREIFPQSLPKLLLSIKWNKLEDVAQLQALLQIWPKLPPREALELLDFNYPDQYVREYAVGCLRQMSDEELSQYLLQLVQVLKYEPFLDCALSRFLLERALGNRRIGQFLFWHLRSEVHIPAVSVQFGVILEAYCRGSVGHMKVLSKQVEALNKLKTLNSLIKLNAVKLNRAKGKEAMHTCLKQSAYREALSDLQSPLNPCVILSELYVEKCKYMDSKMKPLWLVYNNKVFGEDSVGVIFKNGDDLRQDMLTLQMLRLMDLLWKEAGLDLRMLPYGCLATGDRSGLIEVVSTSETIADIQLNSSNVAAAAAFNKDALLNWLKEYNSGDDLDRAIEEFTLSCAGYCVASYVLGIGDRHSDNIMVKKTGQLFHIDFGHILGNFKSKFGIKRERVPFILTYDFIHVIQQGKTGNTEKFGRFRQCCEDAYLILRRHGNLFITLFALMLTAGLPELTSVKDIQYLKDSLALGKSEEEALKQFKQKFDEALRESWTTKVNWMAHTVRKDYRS

Compound	pIC50 [1]	pIC50 [2]	pIC50 [3]
O=C([C@H]1CCCN1)N1CCN(c2nc(N3CCOCC3)nc(-n3c(C(F)F)nc4ccccc43)n2)CC1	7.52		
N[C@@H](Cc1ccccc1)C(=O)N1CCN(c2nc(N3CCOCC3)nc(-n3c(C(F)F)nc4ccccc43)n2)CC1		5.55	7.52
O=C([C@@H]1CCCN1)N1CCN(c2nc(N3CCOCC3)nc(-n3c(C(F)F)nc4ccccc43)n2)CC1	7.52		

— BindingDB's records for doi:10.1016/j.ejmech.2016.06.010 (Monash University, 2016)
